Experimental data reported in patent US7087620B2, “Liquid pharmaceutical formulations containing 3,7-diazabicyclo[3,3,1]nonane compounds and methods of treatment relating to anti-arrhythmic events” (Solvay Pharmaceuticals GmbH, priority 2002, dated 2006).
Like-named read-outs stand apart in the source and are kept apart here.

Tests used:
[1] = system: subjects with recent onset atrial fibrillation or flutter; test: Phase III study of intravenous tedisamil sesquifumarate in subjects with recent onset atrial fibrillation or flutter; format: in vivo, human; settings: second study (Phase III)
Description: This second clinical study was a Multi-Center, Double-Blind, Randomized, Placebo-Controlled, Parallel Design Study to evaluate the Efficacy and Safety of Intravenous Tedisamil Sesquifumarate in the Rapid Conversion to Normal Sinus Rhythm in Subjects with Recent Onset Atrial Fibrillation or Flutter.
The active ingredient used was tedisamil sesqifumarate. […] Study duration: Screening: up to 48 hours; treatment (in-patient): single 30-minute infusion; safety follow up: 24 hours (in-patient) with continuous telemetry and 28 day safety follow up. […]

[2] = system: healthy male subjects; test: Two step infusion study in healthy male subjects: safety and tolerability; format: in vivo, human; settings: for Safety and tolerability: two step infusion of 0.4 mg tedisamil dihydrochloride per kg (0.32 mg/kg base)
Description: (§1) A double-blind, placebo-controlled, randomized, single iv dose, two periods cross-over study to assess the safety, tolerability, pharmacodynamics and pharmacokinetics during and following a two step infusion of Tedisamil in healthy male subjects was performed with the following drug and dosages: Tedisamil dihydrochloride/0.4 mg/kg body weight infused over 30 minutes.
Screening assessments included physical examination, ECG, HIV/Hepatitis screening, blood pressure and heart rate measurements, clinical laboratory determinations, urine drug screen, alcohol breath test, and medical history. Follow-up assessments included physical examination, ECG, blood pressure and heart rate measurements, clinical laboratory determinations, and questions for adverse events and concomitant medication. During concomitant administration of Tedisamil, blood pressure, heart rate, and ECGs were recorded. Adverse events and concomitant medication were monitored throughout the study.
Subjects who received study medication, were considered valid for safety evaluation.
Treatment emergent adverse events, defined as any adverse event present at baseline that worsened or any event that began after treatment with study medication, were summarized by COSTART term for each treatment group. Each adverse event was evaluated for frequency of occurrence, duration, intensity, action taken, outcome, and relationship to administration of the study medication. Adverse events were listed for each subject.
Listings of abnormal or out of range values for each subject were presented for vital signs, laboratory assays, and physical examinations. Adverse events, blood pressure, heart rate and clinical laboratory data were analyzed descriptively and reviewed to evaluate the safety of all randomized subjects. Any clinical abnormalities were described.

[3] = Two step infusion study in healthy male subjects: pharmacokinetics (Tedisamil plasma concentration); format: in vivo; settings: human; for Tmax: male, iv, 0.4 mg/kg, after start of infusion, 0.4 mg/kg iv two step infusion
Description: as §1
Subjects were included in the study only if they were healthy males, their age was in the range of 18-40 years (both inclusive), their body mass index (BMI) was between 18 kg/m^2 and 28 kg/m^2. Test product, dose and mode of administration: Tedisamil dihydrochloride; Strength: 2 mg/ml; Dose: 0.4 mg/kg body weight infused over 30 minutes, with half of the dose infused over 10 minutes and half of the dose infused over the remaining 20 minutes. Route: intravenous.
Blood samples for determination of Tedisamil plasma concentration were taken at several time points during and following intravenous drug administration in both study periods. The following pharmacokinetic parameters were determined: AUC(0-inf), AUC(0-t), Cmax, Tmax, t1/2, λz, Vss, CL, MRT and the number of data points considered for the determination of terminal half life.
Geometric means and corresponding 90% confidence intervals were calculated for the plasma concentration of tedisamil at each time-point, for AUC, AUC(0-t), CL, and Cmax.
Arithmetic means and corresponding 90% confidence intervals were calculated for the other variables (Vss, λz, t1/2, MRT). Tmax was described using minimum, median, maximum, and frequency counts. Individual and mean plasma-concentration versus time curves were plotted using both linear and semi-logarithmic scale.

C1CCC2(C1)C1CN(CC3CC3)CC2CN(CC2CC2)C1 [Tedisamil, N,N′-dicyclopropylmethyl-9,9-tetramethylene-3,7-diazabicyclo[3,3,1]nonane]
Gender difference in conversion rate [1]: male patients show a higher conversion rate compared to women | Adverse events (AEs) ([2]; 0.4 mg/kg iv two step infusion, all judged probably related (injection site reaction, pain injection site, paresthesia)): six AEs were observed in five subjects | Systolic and diastolic blood pressure change ([2]; first four hours after dosing, 0.4 mg/kg iv two step infusion): small increase in the arithmetic mean of systolic and diastolic blood pressure | Pulse rate change ([2]; first hour after dosing, 0.4 mg/kg iv two step infusion): decrease in pulse rate | Safety and tolerability [2]: safe and well tolerated | Safety and tolerability ([2]; listed as TEDI): safe and well tolerated | AUC(0-inf) ([3]; 0.4 mg/kg tedisamil dihydrochloride iv, two step infusion over 30 minutes, read-out: AUC(0-inf), Geom. Mean): 1720 ng·h/mL | AUC(0-t) ([3]; 0.4 mg/kg tedisamil dihydrochloride iv, two step infusion over 30 minutes, read-out: AUC(0-t), Geom. Mean): 1670 ng·h/mL | clearance ([3]; 0.4 mg/kg tedisamil dihydrochloride iv, two step infusion over 30 minutes, read-out: CL, Geom. Mean): 315 mL/min | Cmax ([3]; 0.4 mg/kg tedisamil dihydrochloride iv, two step infusion over 30 minutes, read-out: Cmax, Geom. Mean): 905 ng/mL | half-life ([3]; 0.4 mg/kg tedisamil dihydrochloride iv, two step infusion over 30 minutes, read-out: t½, Arithmetic mean (converted)): 330 min | Tmax ([3]; read-out: Time of peak plasma concentration (Tmax), median (converted)): 12.5 min | Tmax ([3]; read-out: Time of peak plasma concentration (Tmax), range): 5 to 75 min
